In the supplement of paper PMC10307832:

What was measured:
Test in all cases: relative viability (nuclei count vs DMSO), 5 days (fraction); higher = more cells survive
LCLC-103H = system: LCLC-103H
Method in brief: (§1)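 Relative viability was taken as the ratio of nuclei in treated wells to nuclei in vehicle wells. Lung cancer cell lines in 1536-well plates received compounds by pin tool one day after seeding, either one drug alone or a fixed anchor-drug dose plus five library-drug doses (not always all listed) in √10 steps. Nuclei were counted on 4× images after 5 days of treatment, and values are medians of duplicate plates.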

LXF-289 = system: LXF-289
Method in brief: as §1

NCI-H1355 = system: NCI-H1355
Method in brief: as §1

NCI-H1651 = system: NCI-H1651
Method in brief: as §1

NCI-H1755 = system: NCI-H1755
Method in brief: as §1

NCI-H1915 = system: NCI-H1915
Method in brief: as §1

NCI-H2170 = system: NCI-H2170
Method in brief: as §1

NCI-H2347 = system: NCI-H2347
Method in brief: as §1

NCI-H3122 = system: NCI-H3122
Method in brief: as §1

NCI-H322M = system: NCI-H322M
Method in brief: as §1

NCI-H441 = system: NCI-H441
Method in brief: as §1

NCI-H460 = system: NCI-H460
Method in brief: as §1

NCI-H520 = system: NCI-H520
Method in brief: as §1

NCI-H596 = system: NCI-H596
Method in brief: as §1

NCI-H650 = system: NCI-H650
Method in brief: as §1

NCI-H661 = system: NCI-H661
Method in brief: as §1

NCI-H727 = system: NCI-H727
Method in brief: as §1

PC-14 = system: PC-14
Method in brief: as §1

RERF-LC-KJ = system: RERF-LC-KJ
Method in brief: as §1

SK-MES-1 = system: SK-MES-1
Method in brief: as §1

SW 900 = system: SW 900
Method in brief: as §1

## CC1(C)CCC(c2ccc(Cl)cc2)=C(CN2CCN(c3ccc(C(=O)NS(=O)(=O)c4ccc(N[C@H](CCN5CCOCC5)CSc5ccccc5)c(S(=O)(=O)C(F)(F)F)c4)cc3)CC2)C1 [Navitoclax] + O=C(CCCCCCC(=O)Nc1ccccc1)NO [Vorinostat] (partner 1 µM)
LCLC-103H; first compound 0.005 µM
  relative viability: 0.73
LCLC-103H; first compound 0.01581 µM
  relative viability: 0.928
LCLC-103H; first compound 0.05 µM
  relative viability: 0.96
LCLC-103H; first compound 0.1581 µM
  relative viability: 0.807
LCLC-103H; first compound 0.5 µM
  relative viability: 0.665
LXF-289; first compound 0.005 µM
  relative viability: 0.752
LXF-289; first compound 0.01581 µM
  relative viability: 0.842
LXF-289; first compound 0.05 µM
  relative viability: 0.697
LXF-289; first compound 0.1581 µM
  relative viability: 0.799
LXF-289; first compound 0.5 µM
  relative viability: 0.814
NCI-H1355; first compound 0.005 µM
  relative viability: 0.63
NCI-H1355; first compound 0.01581 µM
  relative viability: 0.685
NCI-H1355; first compound 0.05 µM
  relative viability: 0.618
NCI-H1355; first compound 0.1581 µM
  relative viability: 0.637
NCI-H1355; first compound 0.5 µM
  relative viability: 0.665
NCI-H1651; first compound 0.005 µM
  relative viability: 0.582
NCI-H1651; first compound 0.01581 µM
  relative viability: 0.575
NCI-H1651; first compound 0.05 µM
  relative viability: 0.466
NCI-H1651; first compound 0.1581 µM
  relative viability: 0.573
NCI-H1651; first compound 0.5 µM
  relative viability: 0.598
NCI-H1755; first compound 0.005 µM
  relative viability: 0.778
NCI-H1755; first compound 0.01581 µM
  relative viability: 0.798
NCI-H1755; first compound 0.05 µM
  relative viability: 0.543
NCI-H1755; first compound 0.1581 µM
  relative viability: 0.728
NCI-H1755; first compound 0.5 µM
  relative viability: 0.691
NCI-H1915; first compound 0.005 µM
  relative viability: 0.497
NCI-H1915; first compound 0.01581 µM
  relative viability: 0.499
NCI-H1915; first compound 0.05 µM
  relative viability: 0.556
NCI-H1915; first compound 0.1581 µM
  relative viability: 0.481
NCI-H1915; first compound 0.5 µM
  relative viability: 0.424
NCI-H2170; first compound 0.005 µM
  relative viability: 0.818
NCI-H2170; first compound 0.01581 µM
  relative viability: 0.926
NCI-H2170; first compound 0.05 µM
  relative viability: 0.736
NCI-H2170; first compound 0.1581 µM
  relative viability: 0.771
NCI-H2170; first compound 0.5 µM
  relative viability: 0.622
NCI-H2347; first compound 0.005 µM
  relative viability: 0.623
NCI-H2347; first compound 0.01581 µM
  relative viability: 0.628
NCI-H2347; first compound 0.05 µM
  relative viability: 0.534
NCI-H2347; first compound 0.1581 µM
  relative viability: 0.61
NCI-H2347; first compound 0.5 µM
  relative viability: 0.542
NCI-H3122; first compound 0.005 µM
  relative viability: 1.05
NCI-H3122; first compound 0.01581 µM
  relative viability: 0.807
NCI-H3122; first compound 0.05 µM
  relative viability: 1.06
NCI-H3122; first compound 0.1581 µM
  relative viability: 1.02
NCI-H3122; first compound 0.5 µM
  relative viability: 0.839
NCI-H322M; first compound 0.005 µM
  relative viability: 1.02
NCI-H322M; first compound 0.01581 µM
  relative viability: 1.06
NCI-H322M; first compound 0.05 µM
  relative viability: 0.908
NCI-H322M; first compound 0.1581 µM
  relative viability: 0.843
NCI-H322M; first compound 0.5 µM
  relative viability: 0.999
NCI-H441; first compound 0.005 µM
  relative viability: 0.651
NCI-H441; first compound 0.01581 µM
  relative viability: 0.961
NCI-H441; first compound 0.05 µM
  relative viability: 0.982
NCI-H441; first compound 0.1581 µM
  relative viability: 0.694
NCI-H441; first compound 0.5 µM
  relative viability: 0.725
NCI-H460; first compound 0.005 µM
  relative viability: 0.614
NCI-H460; first compound 0.01581 µM
  relative viability: 0.7
NCI-H460; first compound 0.05 µM
  relative viability: 0.561
NCI-H460; first compound 0.1581 µM
  relative viability: 0.645
NCI-H460; first compound 0.5 µM
  relative viability: 0.737
NCI-H520; first compound 0.005 µM
  relative viability: 0.743
NCI-H520; first compound 0.01581 µM
  relative viability: 0.817
NCI-H520; first compound 0.05 µM
  relative viability: 0.704
NCI-H520; first compound 0.1581 µM
  relative viability: 0.691
NCI-H520; first compound 0.5 µM
  relative viability: 0.749
NCI-H596; first compound 0.005 µM
  relative viability: 0.648
NCI-H596; first compound 0.01581 µM
  relative viability: 0.739
NCI-H596; first compound 0.05 µM
  relative viability: 0.299
NCI-H596; first compound 0.1581 µM
  relative viability: 0.55
NCI-H596; first compound 0.5 µM
  relative viability: 0.496
NCI-H650; first compound 0.005 µM
  relative viability: 0.503
NCI-H650; first compound 0.01581 µM
  relative viability: 0.448
NCI-H650; first compound 0.05 µM
  relative viability: 0.431
NCI-H650; first compound 0.1581 µM
  relative viability: 0.463
NCI-H650; first compound 0.5 µM
  relative viability: 0.453
NCI-H661; first compound 0.005 µM
  relative viability: 0.769
NCI-H661; first compound 0.01581 µM
  relative viability: 0.727
NCI-H661; first compound 0.05 µM
  relative viability: 0.809
NCI-H661; first compound 0.1581 µM
  relative viability: 0.763
NCI-H661; first compound 0.5 µM
  relative viability: 0.772
NCI-H727; first compound 0.005 µM
  relative viability: 1.28
NCI-H727; first compound 0.01581 µM
  relative viability: 1.34
NCI-H727; first compound 0.05 µM
  relative viability: 0.901
NCI-H727; first compound 0.1581 µM
  relative viability: 1.12
NCI-H727; first compound 0.5 µM
  relative viability: 1.16
PC-14; first compound 0.005 µM
  relative viability: 0.746
PC-14; first compound 0.01581 µM
  relative viability: 0.794
PC-14; first compound 0.05 µM
  relative viability: 0.59
PC-14; first compound 0.1581 µM
  relative viability: 0.712
PC-14; first compound 0.5 µM
  relative viability: 0.687
RERF-LC-KJ; first compound 0.005 µM
  relative viability: 0.718
RERF-LC-KJ; first compound 0.01581 µM
  relative viability: 0.654
RERF-LC-KJ; first compound 0.05 µM
  relative viability: 0.645
RERF-LC-KJ; first compound 0.1581 µM
  relative viability: 0.673
RERF-LC-KJ; first compound 0.5 µM
  relative viability: 0.622
SK-MES-1; first compound 0.005 µM
  relative viability: 1.06
SK-MES-1; first compound 0.01581 µM
  relative viability: 1.42
SK-MES-1; first compound 0.05 µM
  relative viability: 1.15
SK-MES-1; first compound 0.1581 µM
  relative viability: 1.1
SK-MES-1; first compound 0.5 µM
  relative viability: 1.17
SW 900; first compound 0.005 µM
  relative viability: 0.432
SW 900; first compound 0.01581 µM
  relative viability: 0.573
SW 900; first compound 0.1581 µM
  relative viability: 0.478
SW 900; first compound 0.5 µM
  relative viability: 0.365
